# Data: patent publication US20240317708A1, “INHIBITORS OF TRANSGLUTAMINASES” (ZEDIRA GMBH, priority 2021, published 2024)
# Key:
# [1] = target: T1, recombinant human transglutaminase 2 (Homo sapiens, UniProt P21980); test: Transglutaminase assay (dansylcadaverine incorporation into dimethylcasein, DCC-assay); format: biochemical; conditions: for IC50: recombinant human TG2 10 nM, dansylcadaverine/dimethylcasein, 37° C.
# T1 construct: purchased Zedira T022
# T1 sequence (P21980 1-687): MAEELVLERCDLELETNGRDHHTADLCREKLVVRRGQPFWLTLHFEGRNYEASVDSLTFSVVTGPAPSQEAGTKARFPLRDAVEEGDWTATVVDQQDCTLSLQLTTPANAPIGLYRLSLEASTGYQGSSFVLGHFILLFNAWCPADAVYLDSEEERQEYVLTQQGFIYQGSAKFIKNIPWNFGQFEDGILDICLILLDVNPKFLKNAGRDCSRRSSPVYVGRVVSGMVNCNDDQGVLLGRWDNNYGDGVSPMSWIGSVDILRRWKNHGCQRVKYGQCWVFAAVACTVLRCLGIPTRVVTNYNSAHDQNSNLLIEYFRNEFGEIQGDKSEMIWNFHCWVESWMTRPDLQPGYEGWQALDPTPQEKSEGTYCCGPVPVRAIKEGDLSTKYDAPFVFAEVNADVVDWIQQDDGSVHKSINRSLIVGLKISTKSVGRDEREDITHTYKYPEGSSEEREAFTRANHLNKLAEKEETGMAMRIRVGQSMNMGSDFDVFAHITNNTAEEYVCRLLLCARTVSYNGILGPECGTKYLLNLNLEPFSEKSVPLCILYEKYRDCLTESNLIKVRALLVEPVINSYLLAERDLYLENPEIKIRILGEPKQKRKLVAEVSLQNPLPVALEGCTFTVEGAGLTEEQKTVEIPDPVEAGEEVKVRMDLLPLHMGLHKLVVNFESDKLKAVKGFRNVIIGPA
# Outline: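 IC50 derived from fluorescence slope between 20 and 30 min (λex 330 nm, λem 500 nm, 37 °C), expressed relative to a 2% DMSO control. Reaction: 10 nM recombinant human TG2, 4 μM dimethylcasein, 16.7 μM dansylcadaverine, 10 mM CaCl2 and glutathione, pH 8.0.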
# [2] = Caco-2 permeability assay (CacoReady kit); format: in vitro ADME; conditions: human
# Outline: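 Read-out is the permeability coefficient Papp, obtained from transport across a Caco-2 barrier prepared from a ready-to-use kit following the manufacturer's instructions.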
# [3] = Log D shake flask method (octanol / PBS pH 7.4, HPLC); format: physicochemical; conditions: octanol/phosphate-buffered saline (PBS); octanol / PBS pH 7.4, shake flask
# Protocol: In order to classify the inventive compounds according to their lipophilicity, Log D values (distribution coefficient) were determined by means of the well-established shake flask method, measuring the partition of a compound between an octanol and phosphate-buffered saline (PBS, pH 7.4) by HPLC.
SMILES,IC50 [1],Papp [2],logD [3],"times less potent in comparison to compound III-83 ([1]; IC50 ratio vs III-83, Table 1)"
"COC(=O)/C=C/CC[C@H](NC(=O)c1oc2ccccc2c1C)C(=O)Nc1cccn(CC(=O)N[C@@H]2C[C@H]3CC[C@@H]2C3)c1=O [III-63, (S,E)-methyl 7-(1-(2-((1R,2R,4S)-bicyclo[2.2.1]heptan-2-ylamino)-2-oxoethyl)-2-oxo-1,2-dihydropyridin-3-ylamino)-6-(3-methylbenzofuran-2-carboxamido)-7-oxohept-2-enoate]",< 25 nM,1 to 10 ×10⁻⁶ cm/s,3 to 5,–
"COC(=O)/C=C/CC[C@H](NC(=O)c1cc(Cl)sc1Cl)C(=O)Nc1cccn(CC(=O)N[C@@H]2C[C@H]3CC[C@@H]2C3)c1=O [III-97, (S,E)-methyl 7-(1-(2-((1R,2R,4S)-bicyclo[2.2.1]heptan-2-ylamino)-2-oxoethyl)-2-oxo-1,2-dihydropyridin-3-ylamino)-6-(2,5-dichlorothiophene-3-carboxamido)-7-oxohept-2-enoate]",< 25 nM,1 to 10 ×10⁻⁶ cm/s,3 to 5,–
"CCOC(=O)/C=C/CC[C@H](NC(=O)c1cncn1C)C(=O)Nc1cccn(CC(=O)NC2C3CC4CC(C3)CC2C4)c1=O (stereo partly drawn) [III-99, (S,E)-ethyl 7-(1-(2-(2-adamantylamino)-2-oxoethyl)-2-oxo-1,2-dihydropyridin-3-ylamino)-6-(1-methyl-1H-imidazole-5-carboxamido)-7-oxohept-2-enoate]",25 to 250 nM,< 1 ×10⁻⁶ cm/s,3 to 5,–
"COC(=O)/C=C/CC[C@H](NC(=O)c1oc2ccccc2c1C)C(=O)Nc1cccn(CC(=O)NC23CC4CC(CC(Br)(C4)C2)C3)c1=O [III-53, (S,E)-methyl 7-(1-(2-(3-bromoadamantan-1-amino)-2-oxoethyl)-2-oxo-1,2-dihydropyridin-3-ylamino)-6-(3-methylbenzofuran-2-carboxamido)-7-oxohept-2-enoate]",< 25 nM,1 to 10 ×10⁻⁶ cm/s,3 to 5,–
"COC(=O)/C=C/CC[C@H](NC(=O)C1Cc2ccccc2C1)C(=O)Nc1cccn(CC(=O)NC2C3CC4CC(C3)CC2C4)c1=O (stereo partly drawn) [III-12, (S,E)-methyl 6-(2,3-dihydro-1H-indene-2-carboxamido)-7-(1-(2-(2-adamantylamino)-2-oxoethyl)-2-oxo-1,2-dihydropyridin-3-ylamino)-7-oxohept-2-enoate]",< 25 nM,1 to 10 ×10⁻⁶ cm/s,3 to 5,–
"COC(=O)/C=C/CC[C@H](NC(=O)c1oc2ccccc2c1C)C(=O)Nc1cccn(CC(=O)N(C)C2C3CC4CC(C3)CC2C4)c1=O (stereo partly drawn) [III-37, (S,E)-methyl 7-(1-(2-(2-adamantyl(methyl)amino)-2-oxoethyl)-2-oxo-1,2-dihydropyridin-3-ylamino)-6-(3-methylbenzofuran-2-carboxamido)-7-oxohept-2-enoate]",25 to 250 nM,1 to 10 ×10⁻⁶ cm/s,3 to 5,–
"COC(=O)/C=C/CC[C@H](NC(=O)c1cnnn1C)C(=O)Nc1cccn(CC(=O)NC23CC4CC(C)(CC(C)(C4)C2)C3)c1=O [III-114, (S,E)-methyl 7-(1-(2-(3,5-dimethyladamantane-1-amino)-2-oxoethyl)-2-oxo-1,2-dihydropyridin-3-ylamino)-6-(1-methyl-1H-1,2,3-triazole-5-carboxamido)-7-oxohept-2-enoate]",< 25 nM,< 1 ×10⁻⁶ cm/s,1 to 3,–
"Cn1cncc1C(=O)N[C@@H](CC/C=C/S(C)(=O)=O)C(=O)Nc1cccn(CC(=O)NC2C3CC4CC(C3)CC2C4)c1=O (stereo partly drawn) [III-100, (S,E)-N-(1-(1-(2-(2-adamantylamino)-2-oxoethyl)-2-oxo-1,2-dihydropyridin-3-ylamino)-6-(methylsulfonyl)-1-oxohex-5-en-2-yl)-1-methyl-1H-imidazole-5-carboxamide]",25 to 250 nM,< 1 ×10⁻⁶ cm/s,1 to 3,–
"COC(=O)/C=C/CC[C@H](NC(=O)c1oc2ccccc2c1Cl)C(=O)Nc1cccn(CC(=O)NC2C3CC4CC(C3)CC2C4)c1=O (stereo partly drawn) [III-3, (S,E)-methyl 6-(3-chlorobenzofuran-2-carboxamido)-7-(1-(2-(2-adamantylamino)-2-oxoethyl)-2-oxo-1,2-dihydropyridin-3-ylamino)-7-oxohept-2-enoate]",< 25 nM,1 to 10 ×10⁻⁶ cm/s,3 to 5,–
"COC(=O)/C=C/CC[C@H](NC(=O)c1oc2ccccc2c1C)C(=O)Nc1cccn(CC(=O)N[C@@H]2C[C@H]3CC[C@]2(C)C3(C)C)c1=O [III-68, (S,E)-methyl 6-(3-methylbenzofuran-2-carboxamido)-7-oxo-7-(2-oxo-1-(2-oxo-2-((1R,2R,4R)-1,7,7-trimethylbicyclo[2.2.1]heptan-2-ylamino)ethyl)-1,2-dihydropyridin-3-ylamino)hept-2-enoate]",< 25 nM,1 to 10 ×10⁻⁶ cm/s,3 to 5,–
"COC(=O)/C=C/CC[C@H](NC(=O)c1oc2ccccc2c1C)C(=O)Nc1cccn(CC(=O)NC2C3CC4CC2CC(C)(C4)C3)c1=O (stereo partly drawn) [III-42, (S,E)-methyl 7-(1-(2-(5-methyladamantan-2-amino)-2-oxoethyl)-2-oxo-1,2-dihydropyridin-3-ylamino)-6-(3-methylbenzofuran-2-carboxamido)-7-oxohept-2-enoate]",< 25 nM,1 to 10 ×10⁻⁶ cm/s,3 to 5,–
"COC(=O)/C=C/CC[C@H](NC(=O)c1cccnc1)C(=O)Nc1cccn(CC(=O)NCCc2ccccc2)c1=O [Ref. 5, reference compound]",250 to 1500 nM,< 1 ×10⁻⁶ cm/s,1 to 3,more than 25 times
